Entries after “also recorded” stand apart in the source; their conditions may differ.
How the values were obtained:
[1] = biological target: purified recombinant human PDE5 (Homo sapiens, UniProt O76074); assay: in vitro PDE5 inhibition assay measuring GMP production from cGMP (HPLC-UV-MS); format: biochemical; settings: 1 nM PDE5 catalytic domain, 0.3 μM cGMP, 25 °C, 15 min; mean of at least three replicates ± SEM; read-out: IC50
recombinant human PDE5 = recombinant human PDE5 (Homo sapiens, UniProt O76074); assay: in vitro PDE5 kinetics assay (nonlinear regression, AICc model comparison); format: biochemical
Description: guidelines were considered in the description of the following enzyme activity assays. […] For kinetics assays, 0.015, 0.05, and 0.2 μM of compounds 3 and 7 were used. […] Maximum DMSO concentration was 0.1% of the final reaction volume for all samples. […] The final reaction volume was 100 μL. Reactions were stopped with the addition of 100 μL of 0.1 M HCl and neutralized by adding 0.1 M NaOH until the pH was 7. […] Reaction mixture components were separated with a ramp gradient of solvent A and B run at a flow rate of 0.5 mL/min as follows: 0-4 minutes 0% B, 4-7 minutes 0-95% B, 7-8 minutes 95% B, 8-11.1 minutes 0% B. GMP was measured using selected reaction monitoring in positive mode for a centroid center mass of 152. […] Top value was constrained to 100, all other parameters were unconstrained. To obtain the dose-response curves for visual confirmation of the best-fit line, we executed a nonlinear regression fitting using the log(inhibitor) vs. response-variable slope (four parameters) equation in Prism. […] AICc analysis (built into Prism) was used to confirm the best-fitting inhibition model. […] Inhibition models were also compared via visual inspection of the fit of the calculated curves on the Michaelis-Menten plots.

[2] = biological target: T1, partially purified recombinant human PDE6C (Homo sapiens, UniProt P51160); assay: PDE6C inhibition assay (GMP production); format: biochemical
T1 construct: partially purified recombinant full-length human PDE6C; purchased SB Drug Discovery; host or cells: insect cells
Description: PDE6C inhibition was measured using the same method as described for PDE5 with modifications. […] The final reaction volume was 50 μL. […] Reactions were stopped as described above for PDE5 enzyme assays, and GMP was quantified as described above. […] The amount of GMP produced in these samples was subtracted from all samples before normalizing against untreated controls.

[3] = mitochondrial viability assay with resazurin; format: cell-based, human; settings: human, four cell lines, 0.01–10 μM, even at the highest concentration tested (10 μM)

T1 sequence (P51160 whole entry): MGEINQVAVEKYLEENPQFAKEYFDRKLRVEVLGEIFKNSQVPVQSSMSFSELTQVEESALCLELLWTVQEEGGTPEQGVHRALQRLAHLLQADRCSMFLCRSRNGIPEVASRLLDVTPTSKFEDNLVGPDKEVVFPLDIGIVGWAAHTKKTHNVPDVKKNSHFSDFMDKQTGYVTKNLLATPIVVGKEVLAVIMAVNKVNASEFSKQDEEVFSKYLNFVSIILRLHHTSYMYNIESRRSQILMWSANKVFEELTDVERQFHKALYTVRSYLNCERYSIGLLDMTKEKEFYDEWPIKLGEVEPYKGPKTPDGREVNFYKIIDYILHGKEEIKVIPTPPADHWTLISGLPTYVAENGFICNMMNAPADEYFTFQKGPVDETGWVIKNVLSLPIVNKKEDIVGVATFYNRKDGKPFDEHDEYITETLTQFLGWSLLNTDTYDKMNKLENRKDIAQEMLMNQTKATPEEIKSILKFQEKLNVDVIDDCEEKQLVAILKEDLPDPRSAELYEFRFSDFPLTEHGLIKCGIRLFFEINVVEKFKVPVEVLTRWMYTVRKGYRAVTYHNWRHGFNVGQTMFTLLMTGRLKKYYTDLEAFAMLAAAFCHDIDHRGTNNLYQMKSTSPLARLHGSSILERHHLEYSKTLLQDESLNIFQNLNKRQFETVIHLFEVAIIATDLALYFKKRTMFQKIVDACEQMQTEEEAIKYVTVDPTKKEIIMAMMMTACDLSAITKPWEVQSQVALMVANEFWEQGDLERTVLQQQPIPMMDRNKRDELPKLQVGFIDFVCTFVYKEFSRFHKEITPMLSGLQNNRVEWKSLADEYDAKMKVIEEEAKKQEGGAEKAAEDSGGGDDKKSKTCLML

SMILES: COc1ccc(-c2oc3c(CC=C(C)C)c(O)cc(O)c3c(=O)c2OCCCO)cc1 [Compound 7, 3-O-(3-Hydroxypropyl)-Icaritin]
- IC50 [1]: 140 ± 60 nM
- Ki (recombinant human PDE5): 36 ± 7 nM
- Preferred model (recombinant human PDE5; AICc comparison of competitive vs noncompetitive inhibition): Competitive inhibition
- Preferred model (recombinant human PDE5; AICc comparison of competitive vs uncompetitive inhibition): Competitive inhibition
- probability that the competitive inhibition model is correct (recombinant human PDE5; AICc, compared to a noncompetitive or uncompetitive model): > 99%
- Probability it is correct (competitive inhibition) (recombinant human PDE5; AICc, competitive vs noncompetitive inhibition): >99.99%
- Probability it is correct (competitive inhibition) (recombinant human PDE5; AICc, competitive vs uncompetitive inhibition): >99.99%
- mode of inhibition (recombinant human PDE5; Lineweaver-Burk plot and AICc analysis): competitive inhibition as the best fitting model; also recorded: partially competitive model
- specificity for PDE5 over PDE6C [2]: does not show this specificity
- PDE6C inhibition, statistical significance ([2]; at 50x the PDE5 IC50, vs theoretical uninhibited mean of 100%): significantly inhibits PDE6C activity
- viability at 3 days, 10 μM [3]: > 70%

From publication PMC6754136 (PLoS ONE, 2019)
